Reference: PMC5384220 (Nature Communications, 2017)

Tests used:
FLAG-KDM4A1-1,064 = target: T1, FLAG-KDM4A1-1,064 (Homo sapiens, UniProt O75164); test: CETSA, FLAG-KDM4A in U2OS cells; assay type: cell-based; settings: 0.5 μM, 20 h dosing, DMSO 47 °C
T1 construct: expressed in transfected cells; host or cells: U2OS
T1 sequence (O75164 1-1064): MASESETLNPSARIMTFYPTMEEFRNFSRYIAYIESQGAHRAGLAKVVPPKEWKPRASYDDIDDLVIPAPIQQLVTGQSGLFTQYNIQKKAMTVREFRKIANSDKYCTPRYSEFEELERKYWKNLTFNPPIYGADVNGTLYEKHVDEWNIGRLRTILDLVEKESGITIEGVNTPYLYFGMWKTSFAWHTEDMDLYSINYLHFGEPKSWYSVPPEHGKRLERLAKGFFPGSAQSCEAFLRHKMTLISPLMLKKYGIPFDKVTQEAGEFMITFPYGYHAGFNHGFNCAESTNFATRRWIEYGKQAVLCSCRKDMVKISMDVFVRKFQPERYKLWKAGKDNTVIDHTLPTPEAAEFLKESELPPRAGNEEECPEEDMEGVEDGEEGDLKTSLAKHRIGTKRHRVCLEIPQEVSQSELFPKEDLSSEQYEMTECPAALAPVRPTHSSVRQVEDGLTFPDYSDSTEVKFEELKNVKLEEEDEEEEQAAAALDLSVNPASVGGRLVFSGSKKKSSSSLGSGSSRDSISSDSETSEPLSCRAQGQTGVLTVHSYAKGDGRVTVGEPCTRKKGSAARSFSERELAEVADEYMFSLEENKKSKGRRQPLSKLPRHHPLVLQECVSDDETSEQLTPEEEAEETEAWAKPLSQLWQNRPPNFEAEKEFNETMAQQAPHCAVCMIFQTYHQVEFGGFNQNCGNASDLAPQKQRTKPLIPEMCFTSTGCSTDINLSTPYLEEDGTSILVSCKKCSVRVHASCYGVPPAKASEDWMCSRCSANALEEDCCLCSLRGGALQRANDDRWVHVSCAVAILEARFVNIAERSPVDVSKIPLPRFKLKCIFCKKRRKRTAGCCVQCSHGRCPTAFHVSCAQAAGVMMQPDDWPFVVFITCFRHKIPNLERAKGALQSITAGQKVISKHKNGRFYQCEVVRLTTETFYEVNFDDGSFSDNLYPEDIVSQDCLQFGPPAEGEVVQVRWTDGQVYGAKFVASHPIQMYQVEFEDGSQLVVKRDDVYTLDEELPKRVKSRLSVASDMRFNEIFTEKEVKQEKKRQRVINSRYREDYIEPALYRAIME
Procedure: Control cells were dosed only with DMSO.

actin = settings: U2OS cells, 0.5 μM; same for treated and untreated cells
Procedure: For CETSA melting curve experiments, 80% confluent U2OS cells in a 75 cm^2 flask were transfected with a plasmid encoding full-length Flag-tagged KDM4A1–1,064 (ref. [15]) or KDM4E1–506 (ref. [20]) using Lipofectamine 2000 (Thermo Scientific) and incubated for 4 h. The cells were washed with PBS buffer and media replaced with fresh DMEM with 10% FBS, supplemented with cyclic peptides in DMSO (0.1% DMSO final). Cell dosing was carried out for 20 h at 37 °C. Control cells were dosed only with DMSO. The cells were trypsinized and washed thrice with PBS, by centrifugation (300 g, 3 min, 4 °C). Cells were re-suspended in PBS supplemented with Complete Protease inhibitor cocktail (Sigma) and divided into 8–10 aliquots (100 μl) containing equal cell numbers in PCR tubes. […]
The samples (supernatant) were run on SDS–PAGE (NuPage Novex Bis-Tris 4–12% polyacrylamide gels with NuPAGE MES SDS running buffer (Thermo Scientific)) and transferred onto nitrocellulose membranes using either the iBlot blotting system. FLAG-KDM4A levels were determined by immunoblotting using a monoclonal mouse anti-FLAG primary antibody (F1804, Sigma), at a dilution of 1: 1,000 in PBS-T buffer containing Seablock Reagent Salmon Plasma (2% v/v, Calbiochem). […] Western blotting band intensities were quantified using Image Studio Ver. […]

FLAG-KDM4E = target: T2, FLAG-KDM4E (Homo sapiens, UniProt B2RXH2); test: CETSA, FLAG-KDM4E in U2OS cells; assay type: cell-based; settings: 0.5 µM
T2 construct: expressed in transfected cells; host or cells: U2OS
T2 sequence (B2RXH2 1-506): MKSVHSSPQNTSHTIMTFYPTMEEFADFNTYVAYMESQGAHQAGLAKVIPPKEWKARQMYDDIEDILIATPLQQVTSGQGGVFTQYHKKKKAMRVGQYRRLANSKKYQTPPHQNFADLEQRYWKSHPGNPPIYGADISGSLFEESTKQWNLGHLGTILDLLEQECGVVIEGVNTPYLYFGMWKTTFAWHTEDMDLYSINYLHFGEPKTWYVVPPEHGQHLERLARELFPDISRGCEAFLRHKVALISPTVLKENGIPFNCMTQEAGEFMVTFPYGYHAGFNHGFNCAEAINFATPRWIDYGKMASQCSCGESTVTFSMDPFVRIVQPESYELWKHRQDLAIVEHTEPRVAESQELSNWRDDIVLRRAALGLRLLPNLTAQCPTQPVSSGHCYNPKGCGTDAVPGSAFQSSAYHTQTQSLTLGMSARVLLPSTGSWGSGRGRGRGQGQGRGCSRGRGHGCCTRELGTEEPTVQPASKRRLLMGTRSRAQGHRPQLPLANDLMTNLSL
Procedure: For CETSA melting curve experiments, 80% confluent U2OS cells in a 75 cm^2 flask were transfected with a plasmid encoding full-length Flag-tagged KDM4A1–1,064 (ref. [15]) or KDM4E1–506 (ref. [20]) using Lipofectamine 2000 (Thermo Scientific) and incubated for 4 h. The cells were washed with PBS buffer and media replaced with fresh DMEM with 10% FBS, supplemented with cyclic peptides in DMSO (0.1% DMSO final). Cell dosing was carried out for 20 h at 37 °C. Control cells were dosed only with DMSO. The cells were trypsinized and washed thrice with PBS, by centrifugation (300 g, 3 min, 4 °C). Cells were re-suspended in PBS supplemented with Complete Protease inhibitor cocktail (Sigma) and divided into 8–10 aliquots (100 μl) containing equal cell numbers in PCR tubes. For ITDRF CETSA experiments, approximately 6 × 10^6 cells were seeded evenly into nine 25 cm^2 flask and adhered before transfection. After 4 h of incubation, the cells were washed with PBS buffer and the media replaced with fresh DMEM with 10% FBS supplemented with cyclic peptides at a final concentration between 0 and 4,000 nM (0.1% DMSO final). Cells were trypsinized and washed thrice with PBS using centrifugation (300 g, 3 min, 4 °C). Cells were re-suspended in PBS supplemented with protease inhibitor cocktail (Sigma), aliquots (100 μl) containing equal cell numbers in PCR tubes were prepared. […] For ITDRF, tubes were incubated at approximately the Tm of the proteins of interest as determined by CETSA melting curve experiments, for example, 55 °C (Tm for actin) for 3 min, followed by room temperature for 3 min. […]
The samples (supernatant) were run on SDS–PAGE (NuPage Novex Bis-Tris 4–12% polyacrylamide gels with NuPAGE MES SDS running buffer (Thermo Scientific)) and transferred onto nitrocellulose membranes using either the iBlot blotting system. FLAG-KDM4A levels were determined by immunoblotting using a monoclonal mouse anti-FLAG primary antibody (F1804, Sigma), at a dilution of 1: 1,000 in PBS-T buffer containing Seablock Reagent Salmon Plasma (2% v/v, Calbiochem). […]

DYVYNTRSGWRWYZC [T13Z]
CETSA melting temperature (Tm) of FLAG-KDM4A (FLAG-KDM4A1-1,064): 59 °C | CETSA actin Tm (actin): 55 °C | CETSA stabilization / Tm shift of FLAG-KDM4E (FLAG-KDM4E): No significant changes in the Tm shift
